One experiment concerns the target T1, Kf (exo-) polymerase (Escherichia coli, UniProt P00582, D355A/E357A).
T1 construct: Klenow fragment of DNA polymerase I 3′-exonuclease deficient variant, Kf exo^−; purchased New England BioLabs
The class given is biochemical, E. coli. Conditions: for signal on the T20 template sequence (misincorporation of adenosine ribonucleotide moiety): 20 μM ARN, (T)20 template, Kf polymerase. As to the method: polymerase. (A) Primer-template duplexes with (N)20 ends used in this study. (B) Luminescence signals resulting from the incorporation of ATP-linked nucleotides by Kf (exo.) polymerase. The Kf (exo.) polymerase reaction was carried out with 20 μM chimeric nucleotides and 1 μM corresponding primer template at 37° C. for 1 h. 5 μL of polymerase reaction solution were used for the luciferase reaction. […] (C) Kf (exo.) polymerase selectivity with chimeric nucleotides. The reaction was carried out using the (T)20 template and each of the four ARNs under the same reaction conditions as FIG. 2B.
FIG. 5. Selectivity of chimeric nucleotides with Kf (exo-) polymerase. Each of the four chimeric ARNs was supplied with the polymerase and the annealed primer-template duplex immediately upstream of the sequence T20 (A), C20 (B), A20 (C), and G20 (D), respectively. The polymerase reaction contained: 20 μM chimeric nucleotide, 1 μM corresponding primer/template and 1 μL Kf (exo-) polymerase in manufacturer's polymerase reaction buffer. After 1 h incubation at 37° C., 5 μL reaction solutions were added to 95 μL luciferase reaction solution. The bioluminescence signal was recorded at 1 min intervals over 1 h by microplate fluorimeter.
Our initial studies were directed at testing whether these modified nucleotides would be active as substrates for a DNA polymerase. We carried out experiments of primer extension on short synthetic primer/template duplexes (FIG. 2; 1 μM) in the presence of a standard polymerase (Klenow fragment of DNA polymerase I 3′-exonuclease deficient variant, Kf exo^−). We supplied one ARN at a time (20 μM) to its complementary template for one hour; if synthesis were successful it should generate up to ˜20 μM ATP as by-product of the reaction. We removed a small aliquot of the polymerase reaction and measured luminescence from this aliquot containing ATP in a commercial luciferase+luciferin reaction buffer over one hour (FIG. 2B). […] In this latter case we hypothesize the presence of intra- or inter-molecular G quadruplex structures that may inhibit the polymerase, possibly explaining the diminishment of ATP signal. In all four cases, signals were considerably (13-33-fold) higher than background in which primer/template DNA was omitted.
Next we tested sequence selectivity of the chimeric nucleotides, evaluating sixteen combinations of ARNs with the four DNA sequences (FIG. 2C and FIG. 5). In all cases, the correct nucleotide/target sequence combinations yielded much higher signals than incorrect combinations, showing clear nucleotide/template base selectivity. […]
Primer extension and luciferase signaling with short linear test templates. […] The bioluminescence signal was recorded by microplate fluorometer (Fluoroskan Ascent, Thermal). […]

Experiment [1] addresses T2, Klenow fragment exo− polymerase (Escherichia coli, UniProt P00582, D355A/E357A).
T2 construct: Klenow fragment of DNA polymerase I 3′-exonuclease deficient variant, Kf exo^−; purchased New England BioLabs
The class given is biochemical, E. coli. Conditions: Kf exo−; for Km / kcat: 37° C., single nucleotide incorporation, mean ± SD of three. From the text:
Next we performed experiments to quantify the efficiency of ARNs as DNA polymerase substrates. We used published analytical high-resolution gel-based methods to evaluate steady state kinetics of the four nucleotides as substrates during single nucleotide incorporation experiments, with Kf exo^−. We performed similar measurements with the natural dNTPs for comparison.
Steady-State DNA Polymerase Efficiency with Chimeric ATP-Releasing Nucleotides, with Kf Exo^−.
Steady-state kinetics measurements. Steady-state kinetics assays were performed following previously published procedures (Swanson et al. Biochemistry 2011, 50, 7666-7673). The 13mer primer (SEQ ID NO:13, 5′-[…]-3′) was end labeled with T4 polynucleotide kinase and [γ-^32P]-ATP following the manufacturer's protocol. The 20mer template ODNs (SEQ ID NO:14, 5′-[…]-3′, N=A, T, C, G) were annealed with 5′-^32P-labeled 13mer primer as described above. The annealed primer-template duplex (0.05 μM) was incubated with Klenow fragment exo^− polymerase at 37° C. for 5 min in the presence of individual dNTPs or chimeric ATP-linked nucleotides at varied concentrations.
The parameters were adjusted to result in extents of reaction of 20% or less to maintain initial velocity conditions. The reaction was terminated with an equal volume of formamide gel loading buffer (95% formamide, 20 mM EDTA, 0.05% xylene cyanol and bromophenol blue). Extension products were separated on 20% denaturing polyacrylamide gels containing 8 M urea. Gel band intensities of the primer and its extension products were quantified using a Typhoon 9410 Variable Mode Imager. Quantitative imaging of bands was carried out using Image J software to determine the fraction of primer extension. The velocity was plotted as a function of dNTP (or ARN) concentration and fit with the Michaelis-Menten equation to obtain the kinetic parameters, Vmax and Km. Reactions were performed three times and the mean (±standard deviation) of Vmax and Km are reported. The kcat values were calculated by dividing the Vmax with the concentration of polmerase used. The efficiency of nucleotide incorporation was calculated by the ratio Kcat/Km.

Here are results for eight compounds from patent US20170159112A1, “AMPLIFIED ISOTHERMAL DETECTION OF POLYNUCLEOTIDES WITH ATP RELEASE” (priority 2015, published 2017).

By Km is commonly meant the concentration of substrate that gives half-maximal velocity. As usually defined, the kcat is the maximal rate divided by the concentration of active sites.

T2 sequence (P00582 324-928 D355A/E357A): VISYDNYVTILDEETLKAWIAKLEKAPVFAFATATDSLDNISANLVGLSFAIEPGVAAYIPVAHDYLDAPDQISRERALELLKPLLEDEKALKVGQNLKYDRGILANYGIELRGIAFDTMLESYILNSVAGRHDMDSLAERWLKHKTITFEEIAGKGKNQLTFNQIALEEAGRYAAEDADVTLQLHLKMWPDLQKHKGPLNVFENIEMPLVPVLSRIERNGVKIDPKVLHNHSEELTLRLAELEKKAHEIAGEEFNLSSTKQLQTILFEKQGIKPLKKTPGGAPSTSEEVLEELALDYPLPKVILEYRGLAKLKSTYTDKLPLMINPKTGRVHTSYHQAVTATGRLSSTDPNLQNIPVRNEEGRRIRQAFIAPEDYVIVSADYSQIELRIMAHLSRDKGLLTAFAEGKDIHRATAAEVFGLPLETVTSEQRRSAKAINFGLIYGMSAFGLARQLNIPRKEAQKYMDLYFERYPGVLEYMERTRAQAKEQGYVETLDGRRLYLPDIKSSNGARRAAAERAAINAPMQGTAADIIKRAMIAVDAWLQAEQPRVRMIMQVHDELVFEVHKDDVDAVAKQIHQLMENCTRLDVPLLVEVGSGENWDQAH
T1 sequence (P00582 324-928 D355A/E357A): as above

With `Nc1ccn([C@H]2C[C@H](O)[C@@H](COP(=O)(O)OP(=O)(O)OP(=O)(O)OP(=O)(O)OC[C@H]3O[C@@H](n4cnc5c(N)ncnc54)[C@H](O)[C@@H]3O)O2)c(=O)n1` [dCppppA, Deoxycytidine-5′-tetraphosphate-P4-5′-Adenosine], the “signal on the T20 template sequence (misincorporation of adenosine ribonucleotide moiety)” value (“signal on the T20 template sequence” below) at Kf (exo-) polymerase was “lack of enhanced signal”. The “background signal in selectivity experiments” value at Kf (exo-) polymerase (sixteen combinations of ARNs with four DNA sequences) was “main background signal”. Moreover, in experiment [1], the Km came to 3000 ± 200 nM and the turnover number (kcat) was determined as 12.9 ± 0.1 min⁻¹.

With `Nc1ncnc2c1ncn2[C@H]1C[C@H](O)[C@@H](COP(=O)(O)OP(=O)(O)OP(=O)(O)O)O1` [dATP, reference compound], in experiment [1], the Michaelis constant (Km) is 350 ± 50 nM and the turnover number (kcat) stood at 8.6 ± 0.3 min⁻¹.

In the case of `Cc1cn([C@H]2C[C@H](O)[C@@H](COP(=O)(O)OP(=O)(O)OP(=O)(O)OP(=O)(O)OC[C@H]3O[C@@H](n4cnc5c(N)ncnc54)[C@H](O)[C@@H]3O)O2)c(=O)[nH]c1=O` [dTppppA, Thymidine-5′-tetraphosphate-P4-5′-Adenosine], the “signal on the T20 template sequence” value on Kf (exo-) polymerase is reported as “lack of enhanced signal”. In experiment [1], the Km was found to be 2200 ± 600 nM and the kcat was found to be 3.7 ± 0.1 min⁻¹.

In the case of `Cc1cn([C@H]2C[C@H](O)[C@@H](COP(=O)(O)OP(=O)(O)OP(=O)(O)O)O2)c(=O)[nH]c1=O` [dTTP, reference compound], in experiment [1], the Km amounted to 240 ± 60 nM and the kcat is 8.7 ± 0.3 min⁻¹.

`Nc1ccn([C@H]2C[C@H](O)[C@@H](COP(=O)(O)OP(=O)(O)OP(=O)(O)O)O2)c(=O)n1` [dCTP, reference compound]: in experiment [1], the Km amounted to 70 ± 10 nM and the kcat came to 14.0 ± 0.4 min⁻¹.

`Nc1nc2c(ncn2[C@H]2C[C@H](O)[C@@H](COP(=O)(O)OP(=O)(O)OP(=O)(O)O)O2)c(=O)[nH]1` [dGTP, reference compound]: in experiment [1], the Km turned out to be 110 ± 10 nM and the kcat was 15.4 ± 0.5 min⁻¹.

For `Nc1nc2c(ncn2[C@H]2C[C@H](O)[C@@H](COP(=O)(O)OP(=O)(O)OP(=O)(O)OP(=O)(O)OC[C@H]3O[C@@H](n4cnc5c(N)ncnc54)[C@H](O)[C@@H]3O)O2)c(=O)[nH]1` [dGppppA, Deoxyguanosine-5′-tetraphosphate-P4-5′-Adenosine], the “signal on the T20 template sequence” value on Kf (exo-) polymerase is “lack of enhanced signal”. For the same compound, in experiment [1], the “kcat/Km less than that of native congener dNTP” value is on record as 70 fold, the Michaelis-Menten constant (Km) worked out at 3500 ± 400 nM and the kcat stood at 7.1 ± 0.5 min⁻¹.

For `Nc1ncnc2c1ncn2[C@@H]1O[C@H](COP(=O)(O)OP(=O)(O)OP(=O)(O)OP(=O)(O)OC[C@H]2O[C@@H](n3cnc4c(N)ncnc43)C[C@@H]2O)[C@@H](O)[C@H]1O` [dAppppA, Deoxyadenosine-5′-tetraphosphate-P4-5′-Adenosine], in experiment [1], the “kcat/Km less than that of native congener dNTP” value came to 5 fold, the Km was 1300 ± 400 nM and the kcat was determined as 7.1 ± 0.2 min⁻¹.
